Measured values as given in patent US20250179055A1, “Substituted 2-(pyrrolidine-3-yl)acetic acid derivative, preparation method and use thereof” (INNOVSTONE THERAPEUTICS LIMITED, priority 2023, published 2025).

What follows are compounds tested against Lp(a) assembly in HepG2 cells overexpressing ApoA protein (Homo sapiens (Human), UniProt P08519) (assay: ELISA assay on screening Lp(a) assembly inhibition). Conditions: not given.
Type: cell-based
Experimental: Test Example 1 and Methods of ELISA Assay on Screening Lp(a) Assembly Inhibition
• 1) Preheated the culture media, DPBS, and pancreatin in a 37° C. water bath in advance. • 2) Digested cells with pancreatin, transferred the cell suspension to a 15 mL centrifuge tube, and centrifuged at 1000 rpm for 5 min. • 3) Resuspended the cells with culture media and transferred the cell suspension to a new T75 cell culture flask. • 4) Cultured at 37° C. in a 5% CO2 incubator.
• 1) Seeded HepG2 cells overexpressing of ApoA protein into a 96-well plate at 100 μL per well and incubated overnight for attachment. • 2) Replaced with fresh culture media the next day, then added diluted compounds, and cultured the cell plate in a 5% CO2, 37° C. incubator for 24 h.
• 1) Added 10 μL of 1.5 M EACA to each well. • 2) Centrifuged at 1000 rpm for 1 min, and transferred 100 μL of cell culture supernatant to a pre-coated ELISA plate.
• 1) Added 100 μL of capture antibody to each well of a pre-coated ELISA plate and incubated overnight at 25° C. • 2) Added 300 μL of washing solution to each well and washed 5 times for 1 min each time. • 3) Added 100 μL of blocking solution to each well and incubated at 25° C. for 2 h. • 4) Added 300 μL of washing solution to each well and washed 5 times for 1 min each time. • 5) Added 100 μL of sample to each well and incubated at 25° C. for 1 h. • 6) Added 300 μL of washing solution to each well and washed 5 times for 1 min each time. • 7) Added 100 μL of detection antibody to each well and incubated at 25° C. for 1 h. • 8) Added 300 μL of washing solution to each well and washed 5 times for 1 min each time. • 9) Added 100 μL substrate solution (Color Reagent A: Color Reagent B, 1:1) to each well and incubated for 20 min at 25° C. in the dark. • 10) Added […] of stop solution to each well, gently blowed and sucked several times with the pipette tip, and read within 5 min.
[formula] • X: cpd concentration • Y: inhibition % • Top and Bottom: Plateaus in same units as Y • log IC50: same log units as X • HillSlope: Slope factor or Hill slope

Chain of Lp(a) assembly in HepG2 cells overexpressing ApoA protein (P08519 20-2040): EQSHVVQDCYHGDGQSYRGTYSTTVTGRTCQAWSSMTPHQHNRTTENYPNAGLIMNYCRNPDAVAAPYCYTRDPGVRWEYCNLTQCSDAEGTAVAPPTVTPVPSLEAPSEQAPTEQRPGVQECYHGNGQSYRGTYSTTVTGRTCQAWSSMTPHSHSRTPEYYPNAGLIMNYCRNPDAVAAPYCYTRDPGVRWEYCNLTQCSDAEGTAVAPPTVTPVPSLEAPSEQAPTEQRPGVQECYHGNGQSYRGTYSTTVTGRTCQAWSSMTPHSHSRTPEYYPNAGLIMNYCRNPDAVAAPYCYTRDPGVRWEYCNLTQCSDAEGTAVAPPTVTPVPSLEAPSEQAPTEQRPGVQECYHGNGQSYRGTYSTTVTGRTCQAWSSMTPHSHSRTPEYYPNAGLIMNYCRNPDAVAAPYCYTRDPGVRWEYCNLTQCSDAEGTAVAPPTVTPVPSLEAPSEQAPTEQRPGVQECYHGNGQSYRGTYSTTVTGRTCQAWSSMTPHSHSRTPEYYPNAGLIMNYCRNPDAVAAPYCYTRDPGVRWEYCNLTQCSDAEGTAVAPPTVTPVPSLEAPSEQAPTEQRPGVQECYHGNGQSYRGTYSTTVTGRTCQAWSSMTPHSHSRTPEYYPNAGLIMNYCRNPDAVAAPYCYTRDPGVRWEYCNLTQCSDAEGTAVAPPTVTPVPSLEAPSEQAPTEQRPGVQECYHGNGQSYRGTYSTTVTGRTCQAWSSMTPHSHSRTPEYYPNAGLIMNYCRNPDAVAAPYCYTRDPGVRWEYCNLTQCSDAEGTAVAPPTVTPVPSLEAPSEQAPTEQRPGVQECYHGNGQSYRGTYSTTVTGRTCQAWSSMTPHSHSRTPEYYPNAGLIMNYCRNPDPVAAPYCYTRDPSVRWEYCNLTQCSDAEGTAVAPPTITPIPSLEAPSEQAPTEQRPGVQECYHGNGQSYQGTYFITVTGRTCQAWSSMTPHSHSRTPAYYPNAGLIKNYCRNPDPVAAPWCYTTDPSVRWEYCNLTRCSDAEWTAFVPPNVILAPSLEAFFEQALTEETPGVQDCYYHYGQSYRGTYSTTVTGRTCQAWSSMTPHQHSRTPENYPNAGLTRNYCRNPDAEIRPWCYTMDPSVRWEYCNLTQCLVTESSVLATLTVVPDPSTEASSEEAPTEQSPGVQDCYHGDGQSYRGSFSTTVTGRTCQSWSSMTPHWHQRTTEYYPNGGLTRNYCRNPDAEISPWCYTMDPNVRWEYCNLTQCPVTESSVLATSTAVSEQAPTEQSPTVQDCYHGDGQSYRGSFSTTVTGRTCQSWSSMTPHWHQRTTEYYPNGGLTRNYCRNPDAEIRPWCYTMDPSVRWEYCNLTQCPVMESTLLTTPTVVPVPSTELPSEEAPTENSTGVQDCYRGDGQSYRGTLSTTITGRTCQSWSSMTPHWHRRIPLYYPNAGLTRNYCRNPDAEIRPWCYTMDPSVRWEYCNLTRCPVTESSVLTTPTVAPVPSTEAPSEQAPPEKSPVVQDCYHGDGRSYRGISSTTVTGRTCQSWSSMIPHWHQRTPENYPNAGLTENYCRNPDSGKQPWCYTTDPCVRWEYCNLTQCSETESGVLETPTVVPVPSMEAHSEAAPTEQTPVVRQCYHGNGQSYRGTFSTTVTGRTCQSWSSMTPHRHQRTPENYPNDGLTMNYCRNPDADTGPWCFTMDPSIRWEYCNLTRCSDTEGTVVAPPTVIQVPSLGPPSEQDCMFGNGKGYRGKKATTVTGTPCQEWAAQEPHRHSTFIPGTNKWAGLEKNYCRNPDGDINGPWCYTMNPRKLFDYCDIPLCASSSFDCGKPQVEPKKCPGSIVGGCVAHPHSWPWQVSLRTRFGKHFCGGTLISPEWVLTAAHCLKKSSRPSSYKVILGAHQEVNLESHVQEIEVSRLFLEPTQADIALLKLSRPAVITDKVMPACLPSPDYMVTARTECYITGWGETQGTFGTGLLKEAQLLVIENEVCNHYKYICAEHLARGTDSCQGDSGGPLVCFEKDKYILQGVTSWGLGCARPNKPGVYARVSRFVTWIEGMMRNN

| SMILES | IC50 |
| --- | --- |
| O=C(O)[C@@H](Cc1ncc(CN(Cc2cnc(C[C@H](C(=O)O)[C@H]3CCNC3)s2)Cc2cnc(C[C@H](C(=O)O)[C@H]3CCNC3)s2)s1)[C@H]1CCNC1 [Compound 121, (2S,2′S,2″S)-3,3′,3″-((nitrilotris(methylene))tris(thiazole-5,2-diyl))tris(2-((R)-pyrrolidin-3-yl)propanoic acid)] | 1.53 nM |

Same assay, conditions: HepG2 cells overexpressing ApoA protein, 24 h, ELISA of supernatant

| SMILES | IC50 |
| --- | --- |
| O=C(O)[C@@H](Cc1cccc(CN(Cc2cccc(C[C@H](C(=O)O)[C@H]3CCNC3)c2)Cc2cc3ccc(C[C@H](C(=O)O)[C@H]4CCNC4)cc3s2)c1)[C@H]1CCNC1 [Compound 11, (2S,2′S)-3,3′-(((((6-((S)-2-carboxy-2-((R)-pyrrolidin-3-yl)ethyl)benzo[b]thiophen-2-yl)methyl)azanediyl)bis(methylene))bis(3,1-phenylene))bis(2-((R)-pyrrolidin-3-yl)propanoic acid)] | 0.89 nM |
| O=C(O)[C@@H](Cc1cccc(CCC(=O)N(CCOc2cccc(C[C@H](C(=O)O)[C@H]3CCNC3)c2)CCOc2cccc(C[C@H](C(=O)O)[C@H]3CCNC3)c2)c1)[C@H]1CCNC1 [Compound 148, (2S,2′S)-3,3′-(((((3-(3-((S)-2-carboxy-2-((R)-pyrrolidin-3-yl)ethyl)phenyl)propanoyl)azanediyl)bis(ethane-2,1-diyl))bis(oxy))bis(3,1-phenylene))bis(2-((R)-pyrrolidin-3-yl)propanoic acid)] | 1.5 nM |
| O=C(O)[C@@H](Cc1cccc(CCN(CCc2cccc(C[C@H](C(=O)O)[C@H]3CCNC3)c2)C(=O)COc2cccc(C[C@H](C(=O)O)[C@H]3CCNC3)c2)c1)[C@H]1CCNC1 [Compound 81, (2S,2′S)-3,3′-((((2-(3-((S)-2-carboxy-2-((R)-pyrrolidin-3-yl)ethyl)phenoxy)acetyl)azanediyl)bis(ethane-2,1-diyl))bis(3,1-phenylene))bis(2-((R)-pyrrolidin-3-yl)propanoic acid)] | 0.85 nM |
| O=C(O)[C@@H](Cc1cccc(CCC(=O)N(CCOc2cccc(C[C@H](C(=O)O)[C@H]3CCNC3)c2)Cc2cccc(C[C@H](C(=O)O)[C@H]3CCNC3)c2)c1)[C@H]1CCNC1 [Compound 140, (S)-3-(3-(3-((3-((S)-2-carboxy-2-((R)-pyrrolidin-3-yl)ethyl)benzyl)(2-(3-((S)-2-carboxy-2-((R)-pyrrolidin-3-yl)ethyl)phenoxy)ethyl)amino)-3-oxopropyl)phenyl)-2-((R)-pyrrolidin-3-yl)propanoic acid] | 0.79 nM |
| O=C(O)[C@@H](Cc1cc2c(CN(Cc3cccc4sc(C[C@H](C(=O)O)[C@H]5CCNC5)cc34)Cc3cccc4sc(C[C@H](C(=O)O)[C@H]5CCNC5)cc34)cccc2s1)[C@H]1CCNC1 [Compound 101, (2S,2′S,2″S)-3,3′,3″-((nitrilotris(methylene))tris(benzo[b]thiophene-4,2-diyl))tris(2-((R)-pyrrolidin-3-yl)propanoic acid)] | 2.71 nM |
| N[C@@H](CCCCN(Cc1cc(F)cc(C[C@H](C(=O)O)[C@H]2CCNC2)c1)Cc1cc(F)cc(C[C@H](C(=O)O)[C@H]2CCNC2)c1)C(=O)O [Compound 5, (2S,2′S)-3,3′-(((((S)-5-amino-5-carboxypentyl)azanediyl)bis(methylene))bis(5-fluoro-3,1-phenylene))bis(2-((R)-pyrrolidin-3-yl)propanoic acid)] | 4.12 nM |
| O=C(O)C(Cc1cccc(C(=O)N(CCOc2cccc(C[C@H](C(=O)O)[C@H]3CCNC3)c2)Cc2cccc(C[C@H](C(=O)O)[C@H]3CCNC3)c2)c1)C1CCNC1 (stereo in doubt) [Compound 97, (S)-3-(3-((3-((S)-2-carboxy-2-((R)-pyrrolidin-3-yl)ethyl)-N-(2-(3-((S)-2-carboxy-2-((R)-pyrrolidin-3-yl)ethyl)phenoxy)ethyl)benzamido)methyl)phenyl)-2-((R)-pyrrolidin-3-yl)propanoic acid] | 1.46 nM |

Now from value to compound:

| IC50 | SMILES |
| --- | --- |
| 2.53 nM | O=C(O)[C@@H](Cc1cccc(OCc2cc(COc3cccc(C[C@H](C(=O)O)[C@H]4CCNC4)c3)cc(COc3cccc(C[C@H](C(=O)O)[C@H]4CCNC4)c3)c2)c1)[C@H]1CCNC1 [Compound 149, (2S,2′S,2″S)-3,3′,3″-(((benzene-1,3,5-triyltris(methylene))tris(oxy))tris(benzene-3,1-diyl))tris(2-((R)-pyrrolidin-3-yl)propanoic acid)] |
| 1.45 nM | O=C(CN(Cc1cccc(C[C@H](C(=O)O)[C@H]2CCNC2)c1)Cc1cccc(C[C@H](C(=O)O)[C@H]2CCNC2)c1)c1cccc(C[C@H](C(=O)O)[C@H]2CCNC2)c1 [Compound 130, (2S,2′S)-3,3′-((((2-(3-((S)-2-carboxy-2-((R)-pyrrolidin-3-yl)ethyl)phenyl)-2-oxoethyl)azanediyl)bis(methylene))bis(3,1-phenylene))bis(2-((R)-pyrrolidin-3-yl)propanoic acid)] |
| 1.18 nM | O=C(O)[C@@H](Cc1noc2cc(CN(Cc3ccc4c(C[C@H](C(=O)O)[C@H]5CCNC5)noc4c3)Cc3ccc4c(C[C@H](C(=O)O)[C@H]5CCNC5)noc4c3)ccc12)[C@H]1CCNC1 [Compound 144, (2S,2′S,2″S)-3,3′,3″-((nitrilotris(methylene))tris(benzo[d]isoxazole-6,3-diyl))tris(2-((R)-pyrrolidin-3-yl)propanoic acid)] |
| 1.16 nM | O=C(O)[C@@H](Cc1cccc(CCN(CCc2cccc(C[C@H](C(=O)O)[C@H]3CCNC3)c2)C(=O)c2cccc(C[C@H](C(=O)O)[C@H]3CCNC3)c2)c1)[C@H]1CCNC1 [Compound 108, (2S,2′S)-3,3′-((((3-((S)-2-carboxy-2-((R)-pyrrolidin-3-yl)ethyl)benzoyl)azanediyl)bis(ethane-2,1-diyl))bis(3,1-phenylene))bis(2-((R)-pyrrolidin-3-yl)propanoic acid)] |
| 1.08 nM | O=C(O)[C@@H](Cc1csc(CN(Cc2cc(C[C@H](C(=O)O)[C@H]3CCNC3)cs2)Cc2cc(C[C@H](C(=O)O)[C@H]3CCNC3)cs2)c1)[C@H]1CCNC1 [Compound 137, (2S,2′S,2″S)-3,3′,3″-((nitrilotris(methylene))tris(thiophene-5,3-diyl))tris(2-((R)-pyrrolidin-3-yl)propanoic acid)] |
| 1.04 nM | O=C(O)[C@@H](Cc1cc2cc(CN(Cc3ccc4sc(C[C@H](C(=O)O)[C@H]5CCNC5)cc4c3)Cc3ccc4sc(C[C@H](C(=O)O)[C@H]5CCNC5)cc4c3)ccc2s1)[C@H]1CCNC1 [Compound 104, (2S,2′S,2″S)-3,3′,3″-((nitrilotris(methylene))tris(benzo[b]thiophene-5,2-diyl))tris(2-((R)-pyrrolidin-3-yl)propanoic acid)] |
| 1.03 nM | O=C(O)[C@@H](Cc1ccc2occ(CN(Cc3coc4ccc(C[C@H](C(=O)O)[C@H]5CCNC5)cc34)Cc3coc4ccc(C[C@H](C(=O)O)[C@H]5CCNC5)cc34)c2c1)[C@H]1CCNC1 [Compound 47, (2S,2′S,2″S)-3,3′,3″-((nitrilotris(methylene))tris(benzofuran-3,5-diyl))tris(2-((R)-pyrrolidin-3-yl)propanoic acid)] |
| 0.94 nM | Cn1c(C[C@H](C(=O)O)[C@H]2CCNC2)nc2ccc(CN(Cc3ccc4nc(C[C@H](C(=O)O)[C@H]5CCNC5)n(C)c4c3)Cc3ccc4nc(C[C@H](C(=O)O)[C@H]5CCNC5)n(C)c4c3)cc21 [Compound 133, (2S,2′S,2″S)-3,3′,3″-((nitrilotris(methylene))tris(1-methyl-1H-benzo[d]imidazole-6,2-diyl))tris(2-((R)-pyrrolidin-3-yl)propanoic acid)] |
| 0.93 nM | O=C(O)[C@@H](Cc1cccc(CC(=O)N(CCNc2cccc(C[C@H](C(=O)O)[C@H]3CCNC3)c2)Cc2cccc(C[C@H](C(=O)O)[C@H]3CCNC3)c2)c1)[C@H]1CCNC1 [Compound 146, (S)-3-(3-(2-((3-((S)-2-carboxy-2-((R)-pyrrolidin-3-yl)ethyl)benzyl)(2-((3-((S)-2-carboxy-2-((R)-pyrrolidin-3-yl)ethyl)phenyl)amino)ethyl)amino)-2-oxoethyl)phenyl)-2-((R)-pyrrolidin-3-yl)propanoic acid] |
| 0.88 nM | O=C(O)[C@@H](Cc1cccc(COCC2CN(Cc3cccc(C[C@H](C(=O)O)[C@H]4CCNC4)c3)CCN2Cc2cccc(C[C@H](C(=O)O)[C@H]3CCNC3)c2)c1)[C@H]1CCNC1 (stereo partly drawn) [Compound 132, (2S,2′S)-3,3′-(((2-(((3-((S)-2-carboxy-2-((R)-pyrrolidin-3-yl)ethyl)benzyl)oxy)methyl)piperazine-1,4-diyl)bis(methylene))bis(3,1-phenylene))bis(2-((R)-pyrrolidin-3-yl)propanoic acid)] |
